What all share (format): cell-based
Experiment [1] concerns Klebsiella pneumoniae ATCC 13883. Nature of the experiment: MIC assay. The settings on record: for MIC50 Klebsiella pneumoniae / MIC90 Klebsiella pneumoniae / MIC50 / MIC90: Example 2a, n = 3, ATCC 13883; for MIC50 / MIC90: Klebsiella pneumoniae, ATCC13883. On the procedure: (§1) The exact weighed amount was noted and the volume of solvent to reach a 80 mM dilution calculated. Half of the volume was added first, by adding Tween 80 and let stand for 5 minutes. In a second step, the other half of the volume DMSO was added and resuspended to help the dilution process. The closed tube was inverted 5-10 times and then vortexed very thoroughly for at least 30 seconds. If after this procedure crystals were still visible, the tube was placed in a shaker at 37° C. at 150 rpm for at least 30 minutes (it is indicated if the dissolution period was longer than 2 h). […] In case of Bis(4-Chlorophenyl) thiosulfonate, a lower concentrated stock solution of 2 mM needed to be prepared. For that, the required amount of compound was weighed in and 2% v/v Tween80 and 2% v/v DMSO of the end volume of the stock solution was added to the substance. This mix was heated in a water bath set to 40° C. and occasionally shaken. When the whole amount of the substance reached dissolution, the volume was filled up with growth medium until the end volume. This 2 mM stock solution of Bis(4-Chlorophenyl) thiosulfonate was used in the MIC plate and diluted two-fold, resulting in a testing range of Bis(4-Chlorophenyl) thiosulfonate from 1 mM to 0.002 mM.
(§2) The microorganisms as indicated in Table 4 were used to inoculate a tryptic soy agar (TSA) plate and incubated overnight at 37° C. After incubation 3-5 well-isolated colonies with the same morphology were selected from the TSA plate and resuspended in 2 mL 0.9% saline solution with 3-6 glass beads and vortexed. The optical density at 600 nm (OD600) of the bacterial suspension was measured with a spectrophotometer (Evolution™ 201/220 UV-Visible Spectrophotometer, Thermo Fisher Scientific) and diluted to an OD600 of 0.0008, which resembles 10^6 CFU/mL.
(§3) The MIC assay was performed in a flat-bottom 96-microtiter plate. 50 μL of MHB-II was added into columns 2-11, and 100 μL to column 12 for sterility control. 100 μL of the 8 mM test compound solution (method 1) was added to column 1. A two-fold dilution series of the solution in MHB-II was achieved by resuspending 50 μL of the 8 mM solution from column 1 to column 2. This step was repeated until column 10. The respective concentration of Tween 80 and DMSO in column 1 was 2.5%, which is two-fold diluted throughout the plate. 50 μL of the bacterial suspension was added to column 1-11. The microtiter plates were sealed with adhesive polyethylene film for sealing microplates (Diversified Biotech) and incubated for 24 h at 37° C. After incubation the OD was measured at 600 nm with the Varioskan (Thermo Fisher Scientific). The minimal concentration which causes reduction of final OD600 of the bacterial culture by 50% (MIC50) and by 90% (MIC90) was calculated after normalization of the obtained OD values to the growth control in column 11. This assay was repeated three times in three independent experiments.
(§4) Hereafter, the stock solutions of the compounds were used in three repetitions in a minimal inhibitory concentration (MIC) assay at a 2-fold dilution range with various bacteria from the gram-positive and gram-negative group and a yeast, Candida albicans. The concentrations that show only less than 10% growth after 24 h were considered the MIC90-values, whereas the concentrations that show 50% growth after 24 h when compared to the bacterial growth control were considered the MIC50-values. Escherichia coli and Staphylococcus aureus were used as representatives for a gram-negative bacteria and gram-positive bacteria, respectively. Furthermore, the yeast C. albicans was also tested.
(§5) In an Eppendorf tube between 10-20 mg of the test compound was weighed. Hereafter, the required amount of Tween 80 was added, followed by the amount DMSO. After vigorous shaking, the dissolved and transparent dilutions were diluted 10 times with Mueller Hinton Broth (MHB) for the MIC assay. […]

Experiment [2] concerns Streptococcus uberis ATCC 27985. Nature of the experiment: MIC assay. The settings on record: for MIC50 / MIC90: Streptococcus uberis, ATCC27985. On the procedure:
as §1, §2, §3, §4, §5

In experiment [3] the test system is Streptococcus Suis Type 2 21-018358-002. Nature of the experiment: MIC assay. The following applies: for MIC50 / MIC90: Streptococcus suis. The protocol: as §1, §2, §3, §4, §5
The subject of the next experiment is plant pathogens. Nature of the experiment: Colony diameter on agar plates, all tested fungi (conclusion). The settings on record: conclusion of Example 7b. The protocol:
In particular, the antimicrobial activity of bis(p-chlorophenyl) disulfide (AM2), bis(p-fluorophenyl) disulfide (AM3), bis(p-chlorophenyl) thiosulfonate (AM6) and diisopropyl thiosulfonate (AM8) of the invention is tested against pathogenic fungi selected from Pythium aphanidermatum, Phytophthora cinnamiomi, Fusarium oxysporum, Sclerotinia sclerotiorum, Rhizoctonia solani and Botrytis cinerea.
Experimental design. The effects of mentioned compounds on growth of the fungi were tested on agar plates with various dilutions of the compounds. The fungus was inoculated in the middle of the agar plate. At various time intervals the diameter of the colony was measured.
The fungi were pregrown on appropriate agar media, for example potato dextrose agar or malt extract agar at 24 C. After 3, 7, 10 and 14 days of incubation at 24 C, the diameter of the fungal colonies were measured on the agar plates. Since the agar plates have a diameter of 8 cm, this was the maximum colony size.
Agar media were prepared with various dilutions of bis(p-chlorophenyl) disulfide (AM2), bis(p-fluorophenyl) disulfide (AM3), bis(p-chlorophenyl) thiosulfonate (AM6) and diisopropyl thiosulfonate (AM8).
The test compounds were added to the agar media when the liquid agar medium was still hand-warm to prevent heat-dependent decomposition of the compounds. 50-fold concentrated stock solutions of the antimicrobial compounds of each dilution were prepared in 50% tween-80 and 50% DMSO (in this way the concentrations DMSO and tween 80 were the same in all agar plates). The following concentrations of the antimicrobial compounds were used for each strain in agar plates: 1.0 mM, 0.50 mM, 0.25 mM, 0.125 mM and 0.063 mM in the corresponding medium as indicated in table 12. Each concentration was tested in 4-fold in 8 cm diameter petridishes and each dish contained 11 ml agar medium.
Hereafter, the plates were inoculated in the middle of the dish. Incubation took place at 24 C. Colony diameters were measured at t=3, 7, 10 and 14 days after inoculation. Since the diameter of the petri dishes are 8 cm this diameter was the maximal diameter that was measured.

The mark [4] stands for this setting: Example 2a, n = 3, 21-018358-002.
Where [5] appears, read: Example 2a, n = 3, ATCC 27985, read-out: MIC90 Streptococcus uberis (+).
Setting [6] is: Example 2a, n = 3, 21-018358-002, read-out: MIC90 Streptococcus Suis Type 2 (+).

Converted amounts (≈) assume the structure as drawn. Like-named read-outs stand apart in the source and are kept apart here.

Consider six compounds from US20260083126A1, “ANTIMICROBIAL COMPOSITIONS” (AHV International B.V., priority 2022, published 2026).

Turning to `O=S(=O)(Sc1ccc(F)cc1)c1ccc(F)cc1` [Bis (4-fluorophenyl) thiosulfonate, Bis(4-fluorophenyl) thiosulfonate], in experiment [1], the “MIC50 Klebsiella pneumoniae” value was greater than 4000 µM and the “MIC90 Klebsiella pneumoniae” value was greater than 4000 µM. Also, in experiment [2] (Example 2a, n = 3, ATCC 27985), the “MIC50 Streptococcus uberis (+)” value came out at 670 µM and the “MIC90 Streptococcus uberis (+)” value worked out at 1330 µM. Moreover, in experiment [3] (setting [4]), the “MIC50 Streptococcus Suis Type 2 (+)” value came out at 750 µM and the “MIC90 Streptococcus Suis Type 2 (+)” value came to 880 µM.

As to `Fc1ccc(SSc2ccc(F)cc2)cc1` [Bis (4-fluorophenyl) disulfide, Bis(4-fluorophenyl) disulfide], in the experiment on plant pathogens, the “growth of plant pathogens” value was “clearly inhibited”. Further, the “Average MIC90 K. pneumoniae (Kp)” value in experiment [1] (Example 2b, FIG. 1, no MIC90 detected in the tested range) was “above 4000 μM”. Also, the MIC50 in experiment [1] was greater than 4000 µM; in experiment [2] (Example 2a, n = 3, ATCC 27985), 210 µM (≈ 53.4 µg/mL); in experiment [3] (setting [4]), 380 µM (≈ 96.6 µg/mL). Moreover, the values for the MIC90 in experiment [1], in experiment [2] (setting [5]) and in experiment [3] (setting [6]) were greater than 4000 µM, 630 µM (≈ 160 µg/mL) and 1670 µM (≈ 425 µg/mL), respectively.

As to `CC(C)SS(=O)(=O)C(C)C` [Di-isopropyl thiosulfonate], the “growth of plant pathogens” value in the experiment on plant pathogens is listed as “clearly inhibited”.

On to `O=S(=O)(Sc1ccc(Cl)cc1)c1ccc(Cl)cc1` [Bis (4-chlorophenyl) thiosulfonate, Bis(4-chlorophenyl) thiosulfonate], for which the “growth of plant pathogens” value in the experiment on plant pathogens is reported as “clearly inhibited”. Also, in experiment [1], the “MIC50 Klebsiella pneumoniae” value was greater than 1000 µM and the “MIC90 Klebsiella pneumoniae” value is greater than 1000 µM. Besides, in experiment [2] (Example 2a, n = 3, ATCC 27985), the “MIC50 Streptococcus uberis (+)” value stood at 60 µM and the “MIC90 Streptococcus uberis (+)” value was determined as 500 µM. Also, in experiment [3] (setting [4]), the “MIC50 Streptococcus Suis Type 2 (+)” value is 130 µM and the “MIC90 Streptococcus Suis Type 2 (+)” value was 370 µM.

Turning to `Clc1ccc(SSc2ccc(Cl)cc2)cc1` [Bis (4-chlorophenyl) disulfide, Bis(4-chlorophenyl) disulfide], the “growth of plant pathogens” value in the experiment on plant pathogens is “clearly inhibited”. The MIC50 was greater than 4000 µM in experiment [1]; 20 µM (≈ 5.74 µg/mL) in experiment [2] (Example 2a, n = 3, ATCC 27985); 60 µM (≈ 17.2 µg/mL) in experiment [3] (setting [4]). The MIC90 in experiment [1] is greater than 4000 µM; in experiment [2] (setting [5]), 50 µM (≈ 14.4 µg/mL); in experiment [2] (Example 2b, FIG. 1, no MIC90 detected in the tested range, read-out: Average MIC90 S. uberis (Su)), greater than 1000 µM; in experiment [3] (setting [6]) it was 50 µM (≈ 14.4 µg/mL); in experiment [3] (Example 2b, FIG. 1, no MIC90 detected in the tested range, read-out: Average MIC90 S. suis (Ss)), greater than 1000 µM.

As for `[O-][S+](Sc1ccc(F)cc1)c1ccc(F)cc1` (stereo not shown) [Bis (4-fluorophenyl) thiosulfinate, Bis(4-fluorophenyl) thiosulfinate], in experiment [1], the “MIC50 Klebsiella pneumoniae” value worked out at 2500 µM (≈ 676 µg/mL) and the “MIC90 Klebsiella pneumoniae” value was greater than 4000 µM. Also, in experiment [2] (Example 2a, n = 3, ATCC 27985), the “MIC50 Streptococcus uberis (+)” value is 420 µM (≈ 114 µg/mL) and the “MIC90 Streptococcus uberis (+)” value worked out at 1500 µM (≈ 405 µg/mL). For the same compound, in experiment [3] (setting [4]), the “MIC50 Streptococcus Suis Type 2 (+)” value was found to be 380 µM (≈ 103 µg/mL) and the “MIC90 Streptococcus Suis Type 2 (+)” value came out at 830 µM (≈ 224 µg/mL).
